Conditions: copper sulfate concentration up to 70% (weight percent) in the composition, applied to horse hoofs

## O=S(=O)([O-])[O-].[Cu+2] [copper sulfate]
  harmfulness in this usage (topical hoof thrush treatment): not be harmful

Reference: patent US20150164946A1, “Thrush Treatment Paste” (priority 2013, published 2015)
